Data from publication PMC3598705, “Evaluation of Toxicity and Biodegradability of Cholinium Amino Acids Ionic Liquids” (PLoS ONE, 2013).
Read-outs that look alike come from different tables or passages of the source.

Key:
[1] = tested on: S. enteritidis ATCC 14128; assay: Antimicrobial activity, tube dilution method; format: cell-based, Salmonella enteritidis; details: four repeated experiments; for MIC: 24 h at 37 °C; for MBC: kills 99.9% or more
Procedure: (§1) Antimicrobial activity was measured via the tube dilution method as described previously. Briefly, E. coli, S. aureus, S. enteritidis and L. monocytogenes were cultured in Mueller-Hinton broth for 24 h at 37 °C. A microorganism suspension of 10^6 cfu mL^−1 (cfu, colony forming units) was prepared from each culture. IL solutions (31.3–1500 mM) were prepared with sterilized Mueller-Hinton broth, and then were sterilized by filtration (0.45 µm pore-diameter membrane). The various permutations of microorganism suspension (50 µL) and IL solution (50 µL) were mixed in 96-well microtiter plate. Growth of the microorganisms was determined visually after incubation for 24 h at 37 °C. Controls were conducted under the same conditions: negative controls without microorganisms and positive controls without ILs. The lowest concentration at which there was no visible growth (turbidity) was taken as the minimal inhibitory concentration (MIC). Samples of 20 µL from each well were spread onto Mueller-Hinton agar medium with inactivates (0.3% lecithin, 3% polysorbate 80 and 0.1% L-cysteine) and incubated for 48 h at 37 °C. The lowest concentration of the IL that killed 99.9% or more of the test bacterium was taken as the minimum biocidal concentration (MBC).

[2] = target: T1, AChE type VI-S (from the electric eel) (Electrophorus electricus, UniProt O42275); assay: AChE inhibition assay (colorimetric, DTNB reduction); format: biochemical; details: DTNB 0.5 mM, AChE 0.05 U mL^−1, acetylthiocholine iodide 0.5 mM, 37 °C, phosphate buffer pH 8.0; mean ± SD; read-out: EC50±SD (toxicity toward AChE)
T1 construct: purchased Sigma–Aldrich, USA type VI-S (catalogue number not given)
Procedure: A colorimetric assay based on reduction of DTNB was used to measure AChE inhibition as described previously, [24], in the presence of a phosphate buffer system in order to eliminate the effects of pH changes on enzyme activity. Briefly, IL solutions were prepared with 0.2 M phosphate buffer (pH 8.0) in 96-well microtiter plates. The enzyme (0.2 U mL^−1, plus 0.25 mg mL^−1 bovine serum albumin in the same phosphate buffer), and DTNB (2 mM, plus 0.185 mg mL^−1 NaHCO3 in the same phosphate buffer) were added to each well and kept at 37 °C for 5 min, and then the reaction was initiated by adding acetylthiocholine iodide (2 mM in the same phosphate buffer). In the experimental reactions, the final concentrations of DTNB, acetylthiocholine iodide and AChE were 0.5 mM, 0.5 mM and 0.05 U mL^−1, respectively. Except where stated otherwise, the concentration range used to calculate EC50 of the [Ch][AA] ILs was 0–50 mM. However, for strongly alkaline [Ch][AA] ILs such as [Ch][Lys], the maximum concentration used was 20 mM in order to avoid changes in enzyme activity due to pH changes that would be caused if the IL exceeded the buffering capacity of the phosphate buffer. Acidic amino acid-derived ILs ([Ch][Asp] and [Ch][Glu]) were used up to 80 mM. The control compounds cholinium chloride ([Ch][Cl]), [Bmim][BF4] and acetone were used at concentration ranges of 0–80 mM, 0–50 mM and 10 mM–2.5 M, respectively. Control experiments without enzyme were carried out under otherwise identical conditions. Reduction of DTNB was monitored at 405 nm and at 10 second intervals in a microplate reader (Wallac 1420 VICTOR3, PerkinElmer, Singapore) over a period of 5 min. Enzyme activity was expressed as ΔOD min^−1 obtained via linear regression analysis. All assays were performed at least in triplicate.
All data were analyzed by One-Way analysis of variance using SPSS 11.5 (SPSS Inc., USA). EC50 values are presented as mean ± standard deviation (SD) from at least three repeats, and confidence intervals (α = 0.05) of EC50 are also presented. The One-Way ANOVA was used to judge if the difference between the different ILs groups was significant. When the p value was<0.05, the difference was considered to be significant.

[3] = tested on: L. monocytogenes ATCC 19115; assay: Antimicrobial activity, tube dilution method; format: cell-based, Listeria monocytogenes; details: four repeated experiments
Procedure: as §1

E. coli ATCC 8739 = assay: Antimicrobial activity, tube dilution method; format: cell-based, Escherichia coli; details: four repeated experiments
Procedure: as §1

S. aureus ATCC 29213 = assay: Antimicrobial activity, tube dilution method; format: cell-based, Staphylococcus aureus; details: four repeated experiments
Procedure: as §1

T1 sequence (O42275 24-633): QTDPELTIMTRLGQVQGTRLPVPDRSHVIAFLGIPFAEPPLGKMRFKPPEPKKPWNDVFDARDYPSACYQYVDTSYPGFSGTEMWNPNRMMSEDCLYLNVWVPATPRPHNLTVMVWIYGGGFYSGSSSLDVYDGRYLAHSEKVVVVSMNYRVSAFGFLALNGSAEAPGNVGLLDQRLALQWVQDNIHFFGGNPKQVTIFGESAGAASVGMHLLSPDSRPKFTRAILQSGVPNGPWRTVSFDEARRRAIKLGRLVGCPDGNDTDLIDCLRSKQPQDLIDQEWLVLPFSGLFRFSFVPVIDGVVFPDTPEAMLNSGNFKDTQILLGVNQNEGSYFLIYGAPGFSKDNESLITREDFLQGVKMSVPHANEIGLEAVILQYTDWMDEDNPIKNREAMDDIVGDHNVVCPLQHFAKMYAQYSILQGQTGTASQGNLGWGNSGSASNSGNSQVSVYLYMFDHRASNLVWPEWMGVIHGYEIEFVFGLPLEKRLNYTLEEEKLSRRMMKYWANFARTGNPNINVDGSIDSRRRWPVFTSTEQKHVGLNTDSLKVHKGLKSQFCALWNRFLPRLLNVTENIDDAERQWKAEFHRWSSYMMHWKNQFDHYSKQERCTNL

Row | Structure (SMILES) | EC50 [2] | MIC [1] | MBC [1] | MIC ([3]; 24 h at 37 °C) | MBC ([3]; kills 99.9% or more) | MIC (E. coli ATCC 8739; 24 h at 37 °C) | MBC (E. coli ATCC 8739; kills 99.9% or more) | MIC (S. aureus ATCC 29213; 24 h at 37 °C) | MBC (S. aureus ATCC 29213; kills 99.9% or more) | other results
1 | CCCCn1cc[n+](C)c1 [[Bmim][BF4], 1-Butyl-3-methylimidazolium tetrafluoroborate, reference compound] | 0.33 ± 0.01 mM | – | – | – | – | – | – | – | – | MIC ([1]; Salmonella enterica, read-out: MIC): 2.3 mM; MBC ([1]; Salmonella enterica, read-out: MBC): 2.3 mM; MIC ([3]; Listeria monocytogenes, ATCC19115, 24 h at 37 °C, read-out: MIC): 2.3 mM; MBC ([3]; Listeria monocytogenes, ATCC19115, kills 99.9% or more, read-out: MBC): 4.6 mM; MIC (E. coli ATCC 8739; Escherichia coli, ATCC8739, 24 h at 37 °C, read-out: MIC): 2.3 mM; MBC (E. coli ATCC 8739; Escherichia coli, ATCC8739, kills 99.9% or more, read-out: MBC): 4.6 mM; MIC (S. aureus ATCC 29213; Staphylococcus aureus, ATCC29213, 24 h at 37 °C, read-out: MIC): 2.3 mM; MBC (S. aureus ATCC 29213; Staphylococcus aureus, ATCC29213, kills 99.9% or more, read-out: MBC): 4.6 mM
2 | CC(=O)[O-].C[N+](C)(C)CCO [[Ch][AcO], Cholinium acetate, reference compound] | – | 750 mM | 750 mM | 500 mM | 750 mM | 500 mM | 750 mM | 500 mM | 750 mM | –
3 | C[C@H](N)C(=O)O [[Ch][Ala]] | 3.33 ± 0.1 mM | – | – | – | – | – | – | – | – | –
4 | C[C@H](N)C(=O)[O-].C[N+](C)(C)CCO [[Ch][Ala]] | – | 62.5 mM | 93.8 mM | 188 mM | 250 mM | 46.9 mM | 93.8 mM | 188 mM | 250 mM | –
5 | C[N+](C)(C)CCO.N=C(N)NCCC[C@H](N)C(=O)[O-] [[Ch][Arg]] | 3.67 ± 0.07 mM | 46.9 mM | 62.5 mM | 93.8 mM | 125 mM | 46.9 mM | 93.8 mM | 93.8 mM | 125 mM | –
6 | C[N+](C)(C)CCO.NC(=O)C[C@H](N)C(=O)[O-] [[Ch][Asn]] | – | 93.8 mM | 125 mM | 250 mM | 250 mM | 93.8 mM | 125 mM | 188 mM | 250 mM | –
7 | NC(=O)C[C@H](N)C(=O)O [[Ch][Asn]] | 3.94 ± 0.05 mM | – | – | – | – | – | – | – | – | –
8 | C[N+](C)(C)CCO.C[N+](C)(C)CCO.N[C@@H](CC(=O)[O-])C(=O)[O-] [[Ch][Asp]] | 3.81 ± 0.09 mM | 125 mM | 188 mM | 500 mM | 750 mM | 500 mM | 750 mM | 750 mM | 750 mM | –
9 | C[N+](C)(C)CCO.[Cl-] [[Ch][Cl], cholinium chloride, reference compound] | 3.16 ± 0.09 mM | >750 mM | >750 mM | >750 mM | >750 mM | >750 mM | >750 mM | >750 mM | >750 mM | –
10 | C[N+](C)(C)CCO.NC(=O)CC[C@H](N)C(=O)[O-] [[Ch][Gln]] | – | 93.8 mM | 125 mM | 188 mM | 250 mM | 125 mM | 188 mM | 125 mM | 188 mM | –
11 | NC(=O)CC[C@H](N)C(=O)O [[Ch][Gln]] | 3.51 ± 0.16 mM | – | – | – | – | – | – | – | – | –
12 | C[N+](C)(C)CCO.N[C@@H](CCC(=O)O)C(=O)[O-] [[Ch][Glu]] | 3.72 ± 0.07 mM | 125 mM | 188 mM | 500 mM | 750 mM | 500 mM | 750 mM | 750 mM | 750 mM | –
13 | C[N+](C)(C)CCO.NCC(=O)[O-] [[Ch][Gly]] | – | 93.8 mM | 125 mM | 250 mM | 500 mM | 125 mM | 250 mM | 250 mM | 500 mM | –
14 | NCC(=O)O [[Ch][Gly]] | 3.83 ± 0.17 mM | – | – | – | – | – | – | – | – | –
15 | C[N+](C)(C)CCO.N[C@@H](Cc1cnc[nH]1)C(=O)[O-] [[Ch][His]] | – | 46.9 mM | 62.5 mM | 93.8 mM | 125 mM | 46.9 mM | 62.5 mM | 93.8 mM | 125 mM | –
16 | N[C@@H](Cc1cnc[nH]1)C(=O)O [[Ch][His]] | 3.63 ± 0.04 mM | – | – | – | – | – | – | – | – | –
17 | CCC(C)C(N)C(=O)[O-].C[N+](C)(C)CCO (stereo not shown) [[Ch][Ile]] | 3.57 ± 0.07 mM | 46.9 mM | 62.5 mM | 46.9 mM | 62.5 mM | 46.9 mM | 62.5 mM | 93.8 mM | 125 mM | –
18 | CC(C)C[C@H](N)C(=O)[O-].C[N+](C)(C)CCO [[Ch][Leu]] | 3.36 ± 0.05 mM | 46.9 mM | 62.5 mM | 46.9 mM | 62.5 mM | 46.9 mM | 62.5 mM | 93.8 mM | 125 mM | –
19 | C[N+](C)(C)CCO.NCCCC[C@H](N)C(=O)[O-] [[Ch][Lys]] | 3.48 ± 0.13 mM | 31.3 mM | – | 62.5 mM | 93.8 mM | 31.3 mM | 46.9 mM | 62.5 mM | 93.8 mM | –
20 | CSCC[C@H](N)C(=O)O [[Ch][Met]] | 3.13 ± 0.14 mM | – | – | – | – | – | – | – | – | –
21 | CSCC[C@H](N)C(=O)[O-].C[N+](C)(C)CCO [[Ch][Met]] | – | 31.3 mM | 62.5 mM | 125 mM | 250 mM | 31.3 mM | 62.5 mM | 125 mM | 250 mM | –
22 | C[N+](C)(C)CCO.O=C([O-])[C@@H]1CCCN1 [[Ch][Pro]] | – | 46.9 mM | 62.5 mM | 62.5 mM | 93.8 mM | 46.9 mM | 62.5 mM | 93.8 mM | 125 mM | –
23 | O=C(O)[C@@H]1CCCN1 [[Ch][Pro]] | 3.37 ± 0.16 mM | – | – | – | – | – | – | – | – | –
24 | C[N+](C)(C)CCO.N[C@@H](CO)C(=O)[O-] [[Ch][Ser]] | – | 46.9 mM | 62.5 mM | 93.8 mM | 125 mM | 31.3 mM | 62.5 mM | 125 mM | 250 mM | –
25 | N[C@@H](CO)C(=O)O [[Ch][Ser]] | 3.56 ± 0.15 mM | – | – | – | – | – | – | – | – | –
26 | C[C@@H](O)[C@H](N)C(=O)O [[Ch][Thr]] | 3.45 ± 0.15 mM | – | – | – | – | – | – | – | – | –
27 | C[C@@H](O)[C@H](N)C(=O)[O-].C[N+](C)(C)CCO [[Ch][Thr]] | – | 46.9 mM | 62.5 mM | 93.8 mM | 125 mM | 31.3 mM | 62.5 mM | 125 mM | 250 mM | –
